# From ChEMBL document CHEMBL5465560, “Selectivity Literature for EUbOPEN Chemogenomic Library” (2024)
# Assays:
# [1] = molecular target: Protein arginine N-methyltransferase 3 (Homo sapiens, UniProt O60678); experiment: Selectivity interaction (Methyltransferase screen (radiometric assays, panel of 8 PRMTs, 21 protein lysine methyltransferases, 3 DNA methyltransferases, and one RNA methyltransferase)) EUB0000272b PRMT3
# [2] = molecular target: T1, Mitogen-activated protein kinase kinase kinase 2 (Homo sapiens) (UniProt Q9Y2U5); experiment: Selectivity interaction (LanthaScreen Eu Kinase Binding Assay) EUB0001632a MAP3K2; details: at 10 µM
# T1 sequence (whole entry): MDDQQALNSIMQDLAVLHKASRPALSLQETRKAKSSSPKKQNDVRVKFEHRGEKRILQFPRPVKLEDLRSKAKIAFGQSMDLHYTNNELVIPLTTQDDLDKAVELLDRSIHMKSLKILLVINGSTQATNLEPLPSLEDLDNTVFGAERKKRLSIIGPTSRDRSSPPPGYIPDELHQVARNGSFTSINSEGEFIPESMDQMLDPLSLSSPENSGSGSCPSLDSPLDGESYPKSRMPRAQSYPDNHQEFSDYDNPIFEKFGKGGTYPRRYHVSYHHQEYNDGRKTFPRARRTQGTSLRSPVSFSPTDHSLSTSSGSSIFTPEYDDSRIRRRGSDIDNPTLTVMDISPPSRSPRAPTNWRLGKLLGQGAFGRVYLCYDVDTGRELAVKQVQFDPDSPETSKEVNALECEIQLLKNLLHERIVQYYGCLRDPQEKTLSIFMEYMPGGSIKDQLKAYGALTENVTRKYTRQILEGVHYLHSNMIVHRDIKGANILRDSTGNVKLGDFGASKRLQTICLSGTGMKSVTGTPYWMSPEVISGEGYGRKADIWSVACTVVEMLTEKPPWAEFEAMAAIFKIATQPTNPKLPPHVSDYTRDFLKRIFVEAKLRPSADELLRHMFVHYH
# [3] = molecular target: T2, Serine/threonine-protein kinase TBK1 (Homo sapiens) (UniProt Q9UHD2); experiment: Selectivity interaction (ActivX KiNativ screen (kinase selectivity in THP-1 cell lysates)) EUB0000639a TBK1; assay type: subcellular; details: lysate, at 5 µM
# T2 sequence (whole entry): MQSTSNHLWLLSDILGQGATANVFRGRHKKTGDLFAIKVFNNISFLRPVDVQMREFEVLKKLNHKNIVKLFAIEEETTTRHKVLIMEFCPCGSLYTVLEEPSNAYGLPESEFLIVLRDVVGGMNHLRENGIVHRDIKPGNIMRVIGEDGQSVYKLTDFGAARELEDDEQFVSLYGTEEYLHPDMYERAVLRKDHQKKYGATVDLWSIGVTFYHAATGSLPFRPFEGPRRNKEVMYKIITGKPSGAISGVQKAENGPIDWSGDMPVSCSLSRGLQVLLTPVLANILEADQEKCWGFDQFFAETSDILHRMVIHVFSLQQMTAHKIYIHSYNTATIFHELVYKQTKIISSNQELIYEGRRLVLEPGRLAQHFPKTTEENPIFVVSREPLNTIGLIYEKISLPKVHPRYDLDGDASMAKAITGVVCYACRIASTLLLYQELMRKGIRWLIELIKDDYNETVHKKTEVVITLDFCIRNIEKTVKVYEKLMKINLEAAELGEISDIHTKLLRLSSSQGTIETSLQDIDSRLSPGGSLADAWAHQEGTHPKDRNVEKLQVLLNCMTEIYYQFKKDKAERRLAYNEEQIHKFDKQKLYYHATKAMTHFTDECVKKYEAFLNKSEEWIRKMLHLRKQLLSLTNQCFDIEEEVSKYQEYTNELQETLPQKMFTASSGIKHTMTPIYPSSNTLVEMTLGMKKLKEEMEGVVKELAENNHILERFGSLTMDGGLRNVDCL
# [4] = molecular target: T3, MAP/microtubule affinity-regulating kinase 4 (Homo sapiens) (UniProt Q96L34); experiment: Selectivity interaction (Kinase panel (Invitrogen)) EUB0000639a MARK4; details: at 200 nM
# T3 sequence (whole entry): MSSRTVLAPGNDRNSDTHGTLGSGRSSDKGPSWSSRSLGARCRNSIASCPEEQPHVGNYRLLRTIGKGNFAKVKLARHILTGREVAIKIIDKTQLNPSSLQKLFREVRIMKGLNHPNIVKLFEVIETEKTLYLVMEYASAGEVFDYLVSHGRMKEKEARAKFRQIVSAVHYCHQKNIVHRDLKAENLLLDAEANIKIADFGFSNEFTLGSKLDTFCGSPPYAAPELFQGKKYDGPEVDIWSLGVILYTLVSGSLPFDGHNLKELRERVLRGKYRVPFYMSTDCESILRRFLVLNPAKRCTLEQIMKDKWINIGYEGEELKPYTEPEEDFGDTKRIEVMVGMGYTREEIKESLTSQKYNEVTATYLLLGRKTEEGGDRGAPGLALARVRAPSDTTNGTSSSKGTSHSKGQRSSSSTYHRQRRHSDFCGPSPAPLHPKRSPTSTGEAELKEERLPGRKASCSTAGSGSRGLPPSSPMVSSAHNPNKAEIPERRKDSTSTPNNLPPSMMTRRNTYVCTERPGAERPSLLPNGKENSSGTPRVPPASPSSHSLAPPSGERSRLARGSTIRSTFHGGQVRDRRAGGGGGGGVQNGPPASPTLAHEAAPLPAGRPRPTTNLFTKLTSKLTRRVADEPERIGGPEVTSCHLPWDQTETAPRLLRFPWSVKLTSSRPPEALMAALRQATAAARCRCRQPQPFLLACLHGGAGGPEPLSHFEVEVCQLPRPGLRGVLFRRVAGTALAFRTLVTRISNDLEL
# [5] = molecular target: AMPK alpha2/beta1/gamma1 (Homo sapiens) (UniProt P54646+P54619+Q9Y478); experiment: (§1) Selectivity interaction (SelectScreen profiling (Invitrogen)) EUB0000607a PRKAA1; assay type: protein-complex assay; details: at 2 µM
# [6] = molecular target: AMP-activated protein kinase (AMPK) alpha-1/beta-1/gamma-1 (Homo sapiens) (UniProt P54619+Q9Y478+Q13131); experiment: as §1; assay type: protein-complex assay; details: at 2 µM
# [7] = molecular target: Ribosomal protein S6 kinase alpha-1 (Homo sapiens, UniProt Q15418); experiment: Selectivity interaction (KinomeScan (DiscoverX)) EUB0001049a RPS6KA1; details: at 1 µM
# [8] = molecular target: Serine/threonine-protein kinase SIK2 (Homo sapiens) (UniProt Q9H0K1); experiment: Selectivity interaction (KinomeScan (DiscoverX)) EUB0000045b SIK2
# Chain of Serine/threonine-protein kinase SIK2 (Homo sapiens) (Q9H0K1 whole entry, looked up): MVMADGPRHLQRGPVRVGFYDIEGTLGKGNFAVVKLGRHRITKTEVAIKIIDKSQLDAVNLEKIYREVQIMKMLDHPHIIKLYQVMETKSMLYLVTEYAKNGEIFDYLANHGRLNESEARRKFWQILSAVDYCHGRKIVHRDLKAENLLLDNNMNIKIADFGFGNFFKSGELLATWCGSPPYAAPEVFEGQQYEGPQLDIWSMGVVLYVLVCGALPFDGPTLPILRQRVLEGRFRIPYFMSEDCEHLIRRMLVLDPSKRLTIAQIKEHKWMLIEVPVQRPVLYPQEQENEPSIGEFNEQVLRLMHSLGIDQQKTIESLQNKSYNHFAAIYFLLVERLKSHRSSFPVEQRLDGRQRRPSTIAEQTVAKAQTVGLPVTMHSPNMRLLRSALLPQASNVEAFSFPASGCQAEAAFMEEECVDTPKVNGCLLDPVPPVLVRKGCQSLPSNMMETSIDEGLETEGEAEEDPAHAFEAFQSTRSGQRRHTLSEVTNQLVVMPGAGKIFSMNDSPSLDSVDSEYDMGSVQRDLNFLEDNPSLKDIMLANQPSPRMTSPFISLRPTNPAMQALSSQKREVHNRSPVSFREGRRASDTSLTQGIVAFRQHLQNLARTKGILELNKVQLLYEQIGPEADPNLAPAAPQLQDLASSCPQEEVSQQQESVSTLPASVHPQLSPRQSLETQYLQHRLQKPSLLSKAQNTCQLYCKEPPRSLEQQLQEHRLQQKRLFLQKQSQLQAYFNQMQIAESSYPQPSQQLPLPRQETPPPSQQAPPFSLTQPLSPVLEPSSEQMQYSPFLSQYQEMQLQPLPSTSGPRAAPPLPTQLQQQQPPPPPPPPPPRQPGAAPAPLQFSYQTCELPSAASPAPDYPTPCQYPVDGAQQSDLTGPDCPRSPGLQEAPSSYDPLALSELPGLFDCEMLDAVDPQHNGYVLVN
# Chain of Protein arginine N-methyltransferase 3 (O60678 2-531 limits assumed): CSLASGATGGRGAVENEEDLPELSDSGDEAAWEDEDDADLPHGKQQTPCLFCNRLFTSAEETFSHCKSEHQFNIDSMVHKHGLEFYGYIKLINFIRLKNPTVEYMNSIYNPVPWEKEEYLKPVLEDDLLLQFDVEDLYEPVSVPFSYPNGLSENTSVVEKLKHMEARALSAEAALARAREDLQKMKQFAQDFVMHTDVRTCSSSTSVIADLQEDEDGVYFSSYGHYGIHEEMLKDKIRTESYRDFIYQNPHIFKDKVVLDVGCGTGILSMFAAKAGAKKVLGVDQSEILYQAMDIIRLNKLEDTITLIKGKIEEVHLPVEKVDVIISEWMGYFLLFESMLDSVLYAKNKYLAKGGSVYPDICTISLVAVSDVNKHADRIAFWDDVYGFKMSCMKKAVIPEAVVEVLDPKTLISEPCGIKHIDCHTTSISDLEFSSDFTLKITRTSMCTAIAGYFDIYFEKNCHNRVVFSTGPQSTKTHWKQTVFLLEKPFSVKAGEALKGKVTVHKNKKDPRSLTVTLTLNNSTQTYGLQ
# Chain of AMP-activated protein kinase (AMPK) alpha-1/beta-1/gamma-1 (Homo sapiens) (P54619 whole entry): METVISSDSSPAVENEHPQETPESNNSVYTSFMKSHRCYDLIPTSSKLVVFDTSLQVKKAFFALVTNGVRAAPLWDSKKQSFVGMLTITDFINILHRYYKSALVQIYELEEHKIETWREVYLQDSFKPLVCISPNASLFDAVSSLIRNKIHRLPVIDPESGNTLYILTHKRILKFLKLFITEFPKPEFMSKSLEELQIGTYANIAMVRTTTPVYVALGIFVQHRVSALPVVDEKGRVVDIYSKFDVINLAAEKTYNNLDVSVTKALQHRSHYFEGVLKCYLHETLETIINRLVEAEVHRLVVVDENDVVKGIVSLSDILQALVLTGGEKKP
# Chain of AMP-activated protein kinase (AMPK) alpha-1/beta-1/gamma-1 (Homo sapiens) (Q13131 whole entry partner): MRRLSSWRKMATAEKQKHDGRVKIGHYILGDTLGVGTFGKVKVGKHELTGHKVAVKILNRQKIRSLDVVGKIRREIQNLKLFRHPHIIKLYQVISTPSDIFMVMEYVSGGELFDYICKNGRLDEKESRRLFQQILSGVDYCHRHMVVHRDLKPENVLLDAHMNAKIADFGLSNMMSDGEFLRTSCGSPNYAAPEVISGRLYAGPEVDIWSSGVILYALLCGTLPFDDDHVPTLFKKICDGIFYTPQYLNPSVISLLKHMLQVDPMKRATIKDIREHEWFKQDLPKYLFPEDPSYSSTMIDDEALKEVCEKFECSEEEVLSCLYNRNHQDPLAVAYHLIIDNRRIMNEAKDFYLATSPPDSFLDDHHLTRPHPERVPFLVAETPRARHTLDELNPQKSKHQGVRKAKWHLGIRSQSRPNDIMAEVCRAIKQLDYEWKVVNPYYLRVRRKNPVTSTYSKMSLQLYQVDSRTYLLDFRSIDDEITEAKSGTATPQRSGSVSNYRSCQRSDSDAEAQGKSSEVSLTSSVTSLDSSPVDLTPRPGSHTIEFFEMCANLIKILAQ
# Chain of AMP-activated protein kinase (AMPK) alpha-1/beta-1/gamma-1 (Homo sapiens) (Q9Y478 2-270 partner limits assumed): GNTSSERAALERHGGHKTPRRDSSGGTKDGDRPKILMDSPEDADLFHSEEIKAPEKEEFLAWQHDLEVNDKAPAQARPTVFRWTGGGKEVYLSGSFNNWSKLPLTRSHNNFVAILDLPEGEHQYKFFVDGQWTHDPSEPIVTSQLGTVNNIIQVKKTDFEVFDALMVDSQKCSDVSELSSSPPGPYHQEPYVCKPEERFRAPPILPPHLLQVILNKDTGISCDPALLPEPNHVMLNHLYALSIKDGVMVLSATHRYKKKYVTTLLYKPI
# Chain of AMPK alpha2/beta1/gamma1 (Homo sapiens) (P54619 whole entry partner): as the sequence (P54619 whole entry) above
# Chain of AMPK alpha2/beta1/gamma1 (Homo sapiens) (P54646 whole entry): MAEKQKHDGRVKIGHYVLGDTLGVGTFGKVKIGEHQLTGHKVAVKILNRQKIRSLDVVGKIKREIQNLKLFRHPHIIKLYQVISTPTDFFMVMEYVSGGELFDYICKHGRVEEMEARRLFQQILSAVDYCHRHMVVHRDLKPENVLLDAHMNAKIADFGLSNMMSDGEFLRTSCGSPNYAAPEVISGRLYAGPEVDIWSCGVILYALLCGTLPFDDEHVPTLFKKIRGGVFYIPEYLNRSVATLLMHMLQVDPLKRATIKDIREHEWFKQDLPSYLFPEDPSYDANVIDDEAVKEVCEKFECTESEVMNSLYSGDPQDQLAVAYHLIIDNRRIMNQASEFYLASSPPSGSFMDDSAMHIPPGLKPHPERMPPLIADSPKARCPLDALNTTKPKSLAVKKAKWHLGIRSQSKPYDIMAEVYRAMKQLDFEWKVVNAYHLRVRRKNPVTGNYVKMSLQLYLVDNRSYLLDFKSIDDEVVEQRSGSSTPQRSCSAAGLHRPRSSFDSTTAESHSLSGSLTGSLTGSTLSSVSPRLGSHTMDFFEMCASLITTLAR
# Chain of AMPK alpha2/beta1/gamma1 (Homo sapiens) (Q9Y478 2-270 partner limits assumed): as the sequence (Q9Y478 2-270 partner limits assumed) above
# Chain of Ribosomal protein S6 kinase alpha-1 (Q15418 whole entry): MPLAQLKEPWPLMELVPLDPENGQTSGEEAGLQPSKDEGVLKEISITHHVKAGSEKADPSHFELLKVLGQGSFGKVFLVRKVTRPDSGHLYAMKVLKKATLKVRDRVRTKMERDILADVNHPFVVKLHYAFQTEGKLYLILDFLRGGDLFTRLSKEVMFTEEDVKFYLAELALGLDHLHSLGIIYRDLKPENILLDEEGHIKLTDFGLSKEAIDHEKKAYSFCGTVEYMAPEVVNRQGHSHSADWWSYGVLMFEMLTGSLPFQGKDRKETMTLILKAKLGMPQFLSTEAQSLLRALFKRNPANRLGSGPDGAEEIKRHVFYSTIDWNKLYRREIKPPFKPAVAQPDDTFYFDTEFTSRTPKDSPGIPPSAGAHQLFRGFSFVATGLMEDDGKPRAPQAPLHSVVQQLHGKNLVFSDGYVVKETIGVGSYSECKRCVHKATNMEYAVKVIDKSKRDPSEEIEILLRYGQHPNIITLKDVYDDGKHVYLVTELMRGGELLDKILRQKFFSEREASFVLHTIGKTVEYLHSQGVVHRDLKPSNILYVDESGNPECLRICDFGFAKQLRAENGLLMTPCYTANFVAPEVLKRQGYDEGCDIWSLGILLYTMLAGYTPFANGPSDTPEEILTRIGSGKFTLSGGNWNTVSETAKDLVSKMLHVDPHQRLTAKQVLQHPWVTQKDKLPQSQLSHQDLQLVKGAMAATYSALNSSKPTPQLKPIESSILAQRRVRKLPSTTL
smiles,measurement,setting,value
Cc1cc(C)cc([C@H]2c3cc(C)ccc3NC(=O)CN2C(=O)c2ccc(Br)s2)c1,% of activity,[1]; at 1 µM,102%
same,% of activity,[1]; at 10 µM,102%
Cn1cc(-n2cnc3c(NCc4nc5cc(Cl)c(Cl)cc5[nH]4)nc(N4CCOCC4)nc32)cn1,% of inhibition,[2],-3.79%
CC[C@@H]1[C@H](F)C(=O)N[C@@H]1COc1nccc2cc(C(N)=O)c(OC)cc12 [ZIMLOVISERTIB],% of inhibition,[3],23.9%
same,% of inhibition,[4],14%
CNC(=O)Nc1ccc(-c2nc(N3CC4CCC(C3)O4)c3cnn(C4CCC5(CC4)OCCO5)c3n2)cc1,% of inhibition,[5],7%
same,% of inhibition,[6],5%
COc1cc(Nc2nc(C)cc(-c3cnn4nc(OC)ccc34)n2)cc(C(F)(F)F)c1,% of control,[7],100%
C=CC(=O)Nc1cc(-n2c(=O)ccc3cnc4ccc(-c5ccc(NS(C)(=O)=O)cc5)cc4c32)ccc1C,% of control,[8]; at 1 µM,100%
same,% of control,[8]; at 10 µM,100%
